These results are taken from US9359605B2, “Method of treating cancer by inhibition of DNA repair proteins” (Sarissa Inc., priority 2011, dated 2016).

Read-outs that look alike come from different tables or passages of the source. d = 2'-deoxy (DNA); m = 2'-O-methyl

Data set [1] relates to A549b cells. As to the kind of experiment: Anti-proliferative activity of a drug on A549b cells pretreated with anti-BRCA2 OLIGO/siRNA. Type of data set: cell-based. The note with it: Homo sapiens, curves conservatively extrapolated, read-out: concentration of olaparib required to inhibit proliferation of A549b cells by 50% (IC50). As for the experimental part:
OLIGOs were introduced into cells with the use of Lipofectamine 2000 (LFA2K) (Invitrogen, Burlington, Ontario, Canada). OLIGOs were mixed with LFA2K at a ratio of 0.2 μg/ml per 10 nM OLIGO. The mixture was prepared at 11× the final concentration to which cells were exposed, so that 200 μL was added to 2 mL of medium in which cells were plated. After incubating at room temperature for 20 minutes, according to manufacturer's instructions, the OLIGOs were added to the cell medium. The OLIGO/LFA2K mix was then incubated (37° C.) on the cells for 4 hours, after which a second volume of medium was added. Cells were then incubated for 20 hours. […]
For cells treated with the drug olaparib, for the purposes of determining whether inhibitory activity was enhanced by the OLIGO pretreatment, olaparib was added at this time, in concentrations of from 0.01 μM to 3 μM. […] Following a further 4-day incubation, the proliferation of the treated cells (fold-increase in cell number) was calculated as a percentage of that of control cells. […] As indicated in Example 1, for the purpose of determining the anti-proliferative effect of antisense OLIGOs alone, the proliferation of cells treated with antisense OLIGOs was calculated as a percent of that of cells treated with an equivalent concentration of non-complementary control OLIGO (in this case OLIGO 32). […]

Data set [2] concerns A549b cells. As to the kind of experiment: Proliferation of A549b cells after transfection with antisense OLIGO/siRNA (cell counting, % of control OLIGO). The note with it: 20 nM; compared to non-targeting OLIGO 491S; preliminary assay, FIG. 12. Type of data set: cell-based, human. As for the experimental part:
Cultured cell lines were maintained in minimum essential medium a with nucleosides plus 10% fetal bovine serum and penicillin (50 units/mL)/streptomycin (50 mg/L) (growth medium). Cultures were incubated in a humidified atmosphere of 5% CO2 at 37° C. Cultured cell lines were maintained and cytotoxicity assays conducted as described previously (3). Rapidly proliferating cells were utilized for establishing cultures of experimental cells, which were allowed to plate overnight in 25-cm^2 flasks prior to manipulation. […]
OLIGOs were introduced into cells with the use of Lipofectamine 2000 (LFA2K) (Invitrogen, Burlington, Ontario, Canada). […] Following the 4-day incubation, the proliferation of the treated cells (fold-increase in cell number) was calculated as a percentage of that of control cells. […] For the purpose of determining the anti-proliferative effect of antisense OLIGOs, the proliferation of cells treated with antisense OLIGOs was calculated as a percent of that of cells treated with an equivalent concentration of non-complementary control OLIGO (in this case OLIGO 32) mixed with an equivalent amount of LFA2K.
These experiments were carried out essentially as described in Example 2, after which one volume of medium was added, and cells were further incubated for 20 hours. […] Cells were incubated for 4 days, at which time cell number was counted. […]

The test system of the next data set is BRCA2 mRNA. Nature of the data set: RT-qPCR of BRCA2 mRNA 24 h after OLIGO transfection of A549 cells. Type of data set: cell-based, human. The note with it: 20 nM OLIGO, 24 h post-transfection, FIG. 16. As for the experimental part: (§1) Briefly, A549 cells seeded at a density of 2.0×10^5 per flask were transfected with 20 nM of OLIGO specific for each target or control OLIGO using Lipofectamine 2000 as the transfection reagent. Twenty four hours post-transfection mRNA was extracted and reverse transcribed into cDNA. RT-qPCR was performed for target mRNA levels using TaqMan reagents according to established protocols.

The subject of data set [3] is thymidylate synthase mRNA. Nature of the data set: RT-qPCR of TS mRNA 24 h after OLIGO transfection of A549 cells. The class given is cell-based, human. Conditions: 20 nM OLIGO, 24 h post-transfection, FIG. 16. How it is done: as §1

On to `O=C(c1cc(Cc2n[nH]c(=O)c3ccccc23)ccc1F)N1CCN(C(=O)C2CC2)CC1` [olaparib], for which the IC50 in the data set on A549b cells [1] (in the absence of BR1) is roughly 5000 nM; in the data set on A549b cells [1] (in the presence of BR1 (pretreatment)), roughly 50 nM.
For the compound “OLIGO 83: antisense to 3′-untranslated region of thymidylate synthase mRNA, 5′-gccaguGGCAACATccuuaa-3′ (SEQ ID NO: 25), fully phosphorothioated (antisense GCCAGUGGCAACATCCUUAA; sugars from the 5' end m6 d8 m6, all phosphorothioate, methylation of C not given here)”, in the data set on A549b cells [2], the relative proliferation result is “approximately 20%”. For the same compound, the “effect on BRCA2 mRNA level” value in the data set with BRCA2 mRNA was “no significant effect”. In addition, in data set [3], the “effect on TS mRNA level” value is “reduce”.
